Results taken from patent US20230233569A1 (Revolution Medicines, Inc., priority 2020, published 2023).
pIC50: −log10 of the molar value.

Assays:
Assay in all cases: Ras-Raf disruption / FRET / MOA assay (BRAF RBD)
Format in all cases: biochemical
KRAS G12C = KRAS G12C (Homo sapiens, UniProt P01116+P62937, G12C); conditions: Ras-Raf disruption, with Cyclophilin A; read-out: KRAS G12C FRET data IC50
How it was run: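 TR-FRET read-out after 1.5 h with anti-His Eu-W1024 (10 nM) and anti-GST APC (50 nM), following 3 h at 25 °C of compound (top 30 μM, 3-fold, 10 points) with 25 μM Cyclophilin A, 12.5 nM GMPPNP-loaded K-Ras G12C and 50 nM BRAF RBD; IC50 reported.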

NRAS G12C = NRAS G12C (Homo sapiens, UniProt P01111+P62937, G12C); conditions: NRAS G12C; read-out: NRAS G12C FRET data IC50
How it was run: (§1)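 Compound-induced Ras–Cyclophilin A ternary complex disrupting BRAF RBD binding, read as IC50 from reduced TR-FRET ratio relative to DMSO. Final: Ras-GMPPNP 12.5 nM, BRAF RBD 50 nM, Cyclophilin A 25 μM, top compound 30 μM (3-fold, 10 points); 3 h at 25 °C, then 1.5 h with detection antibodies.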

KRAS G12V = KRAS G12V (Homo sapiens, UniProt P01116+P62937, G12V); conditions: Ras-Raf disruption, with Cyclophilin A; read-out: KRAS G12V FRET data IC50
How it was run: as §1

KRAS WT = KRAS WT (Homo sapiens, UniProt P01116+P62937); conditions: Ras-Raf disruption, with Cyclophilin A; read-out: KRAS WT FRET data IC50
How it was run: as §1

KRAS G12D = KRAS G12D (Homo sapiens, UniProt P01116+P62937, G12D); conditions: Ras-Raf disruption, with Cyclophilin A; read-out: KRAS G12D FRET data IC50
How it was run: as §1

KRAS G13C = KRAS G13C (Homo sapiens, UniProt P01116+P62937, G13C); conditions: Ras-Raf disruption, with Cyclophilin A; read-out: KRAS G13C FRET data IC50
How it was run: as §1

KRAS G12S = KRAS G12S (Homo sapiens, UniProt P01116+P62937, G12S); conditions: Ras-Raf disruption, with Cyclophilin A; read-out: KRAS G12S FRET data IC50
How it was run: as §1

KRAS G13D = KRAS G13D (Homo sapiens, UniProt P01116+P62937, G13D); conditions: Ras-Raf disruption, with Cyclophilin A; read-out: KRAS G13D FRET data IC50
How it was run: as §1

Chain of KRAS G13C (P01116 1-169 isoform P01116-2 G13C limits assumed): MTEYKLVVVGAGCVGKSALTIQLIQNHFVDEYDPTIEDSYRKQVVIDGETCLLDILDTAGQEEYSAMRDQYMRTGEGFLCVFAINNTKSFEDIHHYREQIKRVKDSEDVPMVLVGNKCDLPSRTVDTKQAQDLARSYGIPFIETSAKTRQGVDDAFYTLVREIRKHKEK
Chain of KRAS G13C (P62937 whole entry): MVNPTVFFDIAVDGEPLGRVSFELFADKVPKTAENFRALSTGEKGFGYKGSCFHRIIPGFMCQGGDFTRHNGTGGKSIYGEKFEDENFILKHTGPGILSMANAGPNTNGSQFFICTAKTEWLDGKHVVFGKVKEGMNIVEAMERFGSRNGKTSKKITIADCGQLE
Chain of KRAS G12S (P01116 1-169 isoform P01116-2 G12S limits assumed): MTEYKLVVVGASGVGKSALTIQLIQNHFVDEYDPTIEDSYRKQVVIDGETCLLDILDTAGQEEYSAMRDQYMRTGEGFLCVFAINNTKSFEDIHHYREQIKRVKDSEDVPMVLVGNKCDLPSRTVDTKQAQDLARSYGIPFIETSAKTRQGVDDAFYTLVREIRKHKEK
Chain of KRAS G12S (P62937 whole entry): as the sequence (P62937 whole entry) above
Chain of KRAS G12C (P01116 1-169 isoform P01116-2 G12C limits assumed): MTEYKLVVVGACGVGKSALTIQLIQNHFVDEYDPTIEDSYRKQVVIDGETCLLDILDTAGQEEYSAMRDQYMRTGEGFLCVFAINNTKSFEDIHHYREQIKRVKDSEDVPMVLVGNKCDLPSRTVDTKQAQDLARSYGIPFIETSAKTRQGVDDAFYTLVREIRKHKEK
Chain of KRAS G12C (P62937 whole entry): as the sequence (P62937 whole entry) above
Chain of KRAS WT (P01116 1-169 isoform P01116-2 limits assumed): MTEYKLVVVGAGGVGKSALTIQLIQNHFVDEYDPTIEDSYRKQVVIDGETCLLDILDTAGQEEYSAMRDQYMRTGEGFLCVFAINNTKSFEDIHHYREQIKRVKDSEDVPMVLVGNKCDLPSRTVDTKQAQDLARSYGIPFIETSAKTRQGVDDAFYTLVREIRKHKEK
Chain of KRAS WT (P62937 whole entry): as the sequence (P62937 whole entry) above
Chain of NRAS G12C (P01111 whole entry G12C): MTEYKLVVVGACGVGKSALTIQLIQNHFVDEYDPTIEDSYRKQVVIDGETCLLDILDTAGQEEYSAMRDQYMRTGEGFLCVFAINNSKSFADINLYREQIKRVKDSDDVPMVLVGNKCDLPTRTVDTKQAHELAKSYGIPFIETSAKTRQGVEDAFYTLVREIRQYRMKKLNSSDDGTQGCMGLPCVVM
Chain of NRAS G12C (P62937 whole entry): as the sequence (P62937 whole entry) above
Chain of KRAS G13D (P01116 1-169 isoform P01116-2 G13D limits assumed): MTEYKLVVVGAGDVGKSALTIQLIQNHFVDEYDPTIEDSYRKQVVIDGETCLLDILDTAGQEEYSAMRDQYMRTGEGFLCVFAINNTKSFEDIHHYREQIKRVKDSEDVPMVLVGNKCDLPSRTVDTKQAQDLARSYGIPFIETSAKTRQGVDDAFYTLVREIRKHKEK
Chain of KRAS G13D (P62937 whole entry): as the sequence (P62937 whole entry) above
Chain of KRAS G12V (P01116 1-169 isoform P01116-2 G12V limits assumed): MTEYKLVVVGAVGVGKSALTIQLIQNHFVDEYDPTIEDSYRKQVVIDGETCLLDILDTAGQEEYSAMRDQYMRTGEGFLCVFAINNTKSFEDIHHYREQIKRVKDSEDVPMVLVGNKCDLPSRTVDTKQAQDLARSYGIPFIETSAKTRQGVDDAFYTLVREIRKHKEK
Chain of KRAS G12V (P62937 whole entry): as the sequence (P62937 whole entry) above
Chain of KRAS G12D (P01116 1-169 isoform P01116-2 G12D limits assumed): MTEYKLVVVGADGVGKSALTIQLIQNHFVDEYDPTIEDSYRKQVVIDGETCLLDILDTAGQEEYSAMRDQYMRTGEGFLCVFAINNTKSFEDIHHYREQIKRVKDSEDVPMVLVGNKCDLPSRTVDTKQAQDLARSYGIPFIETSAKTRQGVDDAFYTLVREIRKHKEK
Chain of KRAS G12D (P62937 whole entry): as the sequence (P62937 whole entry) above

Row | Compound | pIC50 (KRAS G12C) | pIC50 (NRAS G12C) | pIC50 (KRAS G12V) | pIC50 (KRAS WT) | pIC50 (KRAS G12D) | pIC50 (KRAS G13C) | pIC50 (KRAS G12S) | pIC50 (KRAS G13D)
1 | CCn1c(-c2cccnc2[C@H](C)OC)c2c3cc(ccc31)-c1cccc(c1)C[C@H](NC(=O)[C@H](C(C)C)N(C)C(=O)[C@H]1CC[C@H](N=C=NC34CC(C3)C4)C1)C(=O)N1CCC[C@H](N1)C(=O)OCC(C)(C)C2 [Example 123] | 6.00 to 7.00 | 6.00 to 7.00 | 5.00 to 6.00 | 5.00 to 6.00 | 5.00 to 6.00 | 6.00 to 7.00 | < 5.00 | < 5.00
2 | CCn1c(-c2cccnc2[C@H](C)OC)c2c3cc(ccc31)-c1cc(O)cc(c1)C[C@H](NC(=O)[C@H](C(C)C)N1CC[C@]3(CCN(C(=O)[C@H]4CN4)C3)C1=O)C(=O)N1CCC[C@H](N1)C(=O)OCC(C)(C)C2 [Example 146] | > 8.00 | > 8.00 | 7.00 to 8.00 | 7.00 to 8.00 | 7.00 to 8.00 | 7.00 to 8.00 | 7.00 to 8.00 | 6.00 to 7.00
3 | CCn1c(-c2cccnc2[C@H](C)OC)c2c3cc(ccc31)-c1cc(O)cc(c1)C[C@H](NC(=O)[C@H](C(C)C)N(C)C(=O)[C@@H]1CCN(C(=O)[C@@H]3CN3)C1)C(=O)N1CCC[C@H](N1)C(=O)OCC(C)(C)C2 [Example 172] | 7.00 to 8.00 | 7.00 to 8.00 | 7.00 to 8.00 | 7.00 to 8.00 | 6.00 to 7.00 | 7.00 to 8.00 | 7.00 to 8.00 | 7.00 to 8.00
4 | CCn1c(-c2cccnc2[C@H](C)OC)c2c3cc(ccc31)-c1cc(O)cc(c1)C[C@H](NC(=O)[C@H](C(C)C)N(C)C(=O)N1CCN(C(=O)[C@H]3CN3)C(=O)C1)C(=O)N1CCC[C@H](N1)C(=O)OCC(C)(C)C2 [Example 143] | 7.00 to 8.00 | 7.00 to 8.00 | 6.00 to 7.00 | 7.00 to 8.00 | 6.00 to 7.00 | 7.00 to 8.00 | 7.00 to 8.00 | 7.00 to 8.00
5 | CCn1c(-c2cccnc2[C@H](C)OC)c2c3cc(ccc31)-c1cc(O)cc(c1)C[C@H](NC(=O)[C@H](C1CCCC1)N1CC[C@@]3(CCN(C(=O)[C@H]4CN4)C3)C1=O)C(=O)N1CCC[C@H](N1)C(=O)OCC(C)(C)C2 [Example 174] | > 8.00 | > 8.00 | 7.00 to 8.00 | 7.00 to 8.00 | 6.00 to 7.00 | 7.00 to 8.00 | 7.00 to 8.00 | 7.00 to 8.00
6 | CCn1c(-c2cccnc2[C@H](C)OC)c2c3cc(ccc31)-c1cc(O)cc(c1)C[C@H](NC(=O)[C@H](C(C)C)N(C)C(=O)[C@H]1CCN(C(=O)[C@@H]3N[C@@H]3C3CC3)C1)C(=O)N1CCC[C@H](N1)C(=O)OCC(C)(C)C2 (atropisomer, axis not shown) [Example 198] | > 8.00 | > 8.00 | 6.00 to 7.00 | 7.00 to 8.00 | 7.00 to 8.00 | 7.00 to 8.00 | 7.00 to 8.00 | 7.00 to 8.00
7 | CCn1c(-c2cccnc2[C@H](C)OC)c2c3cc(ccc31)-c1cc(O)cc(c1)C[C@H](NC(=O)[C@H](C(C)C)N(C)C(=O)c1ccc(NC(=O)[C@@H]3CN3)cn1)C(=O)N1CCC[C@H](N1)C(=O)OCC(C)(C)C2 (atropisomer, axis not shown) [Example 187] | 6.00 to 7.00 | 6.00 to 7.00 | 6.00 to 7.00 | 6.00 to 7.00 | 6.00 to 7.00 | 7.00 to 8.00 | 6.00 to 7.00 | 6.00 to 7.00
8 | CCn1c(-c2cccnc2[C@H](C)OC)c2c3cc(ccc31)-c1cc(O)cc(c1)C[C@H](NC(=O)[C@H](C(C)C)N1CCC3(CN(C(=O)[C@H]4CN4)C3)C1=O)C(=O)N1CCC[C@H](N1)C(=O)OCC(C)(C)C2 [Example 115] | > 8.00 | > 8.00 | 6.00 to 7.00 | 7.00 to 8.00 | 6.00 to 7.00 | 7.00 to 8.00 | 6.00 to 7.00 | 7.00 to 8.00
9 | CCn1c(-c2cccnc2[C@H](C)OC)c2c3cc(ccc31)-c1cc(O)cc(c1)C[C@H](NC(=O)[C@H](C(C)C)N(C)C(=O)N1CCN(C(=O)[C@H]3CN3)CC1=O)C(=O)N1CCC[C@H](N1)C(=O)OCC(C)(C)C2 (atropisomer, axis not shown) [Example 183] | > 8.00 | 7.00 to 8.00 | 6.00 to 7.00 | 7.00 to 8.00 | 5.00 to 6.00 | 7.00 to 8.00 | 6.00 to 7.00 | 6.00 to 7.00
